{"source": "patent US9266817B2", "about": "“Catecholamine derivatives for obesity and neurological disorders” (EMORY UNIVERSITY, priority 2009, dated 2016)", "key": {"TrkB [1]": {"biological_target": "T1, TrkB (Mus musculus, UniProt P15209)", "T1 construct": "endogenous in cells; host or cells: primary cortical neurons from BDNF-null, TrkB +/- cross, TrkC knockout and NET -/- mice", "T1 sequence (P15209 32-821)": "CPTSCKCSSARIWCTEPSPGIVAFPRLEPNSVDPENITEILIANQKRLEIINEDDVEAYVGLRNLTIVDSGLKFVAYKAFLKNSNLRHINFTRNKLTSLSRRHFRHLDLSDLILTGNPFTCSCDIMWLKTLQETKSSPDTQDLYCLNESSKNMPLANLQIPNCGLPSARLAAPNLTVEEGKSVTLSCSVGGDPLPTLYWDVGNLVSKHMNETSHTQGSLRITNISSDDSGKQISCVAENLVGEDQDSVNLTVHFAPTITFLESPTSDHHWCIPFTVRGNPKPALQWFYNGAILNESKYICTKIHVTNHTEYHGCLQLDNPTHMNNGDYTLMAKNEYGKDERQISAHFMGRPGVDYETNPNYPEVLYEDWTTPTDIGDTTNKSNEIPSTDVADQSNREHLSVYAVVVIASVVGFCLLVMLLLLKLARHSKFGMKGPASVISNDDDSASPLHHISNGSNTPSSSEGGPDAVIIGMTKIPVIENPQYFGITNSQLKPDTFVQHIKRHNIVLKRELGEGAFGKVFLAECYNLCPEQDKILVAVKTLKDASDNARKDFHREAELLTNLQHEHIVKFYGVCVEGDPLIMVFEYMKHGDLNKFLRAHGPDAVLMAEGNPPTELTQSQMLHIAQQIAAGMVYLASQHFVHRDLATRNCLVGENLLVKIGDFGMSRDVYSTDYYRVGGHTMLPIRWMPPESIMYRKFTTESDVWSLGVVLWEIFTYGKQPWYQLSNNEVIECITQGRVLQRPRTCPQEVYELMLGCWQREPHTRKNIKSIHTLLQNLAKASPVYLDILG", "format": "cell-based, mice", "settings": "compared to wild-type control neurons", "experimental": "(§1) It was then determined whether catecholamines could activate TrkB in neurons cultured from mice carrying a null mutation of NET."}, "TrkB [2]": {"biological_target": "T2, TrkB (Rattus norvegicus, UniProt Q63604)", "T2 construct": "endogenous in cells; host or cells: primary rat cortical and hippocampal neurons", "T2 sequence (Q63604 32-821)": "as the sequence (P15209 32-821) above, with T3M, S9T, A10T, V32I, R63K, S84G, M153T, L185I, S394T, S770N counted along it", "assay": "Immunofluorescent staining with anti-phospho-TrkB Y816 in primary hippocampal neurons", "format": "cell-based", "settings": "300 nM, 30 min", "experimental": "Primary Rat Cortical and Hippocampal Neuron Cultures\nPrimary hippocampal neurons were seeded on poly-L-lysine coated coverslips in a 12-well plate. After 7 days in vitro, the neurons were treated with 100 ng/ml BDNF or variety of neurotransmitters and 7,8-dihydroxyflavone compound (500 nM) for 30 min, and then washed with PBS. Cells were fixed with 3% formaldehyde in PBS at room temperature for 15 min. The cells were then permeabilized and blocked by 0.4% Triton X-100 and 2% FBS in PBS at room temperature for 15 minutes, washed with PBS three times and treated with anti-MAP2 (1:200) and anti-phospho-TrkB antibodies (1:100). After staining with FITC- or Rhodamine-conjugated secondary antibody, the coverslips were mounted on slides. Fluorescent images were taken by OLYMPUS IX71 fluorescence microscope (Olympus; Center Valley, Pa.).\n(§2) To explore whether monoamine neurotransmitters, including catecholamines (see, e.g., FIG. 1), could stimulate TrkB activation, hippocampal neurons were treated with 300 nM of catecholamines, serotonin, and melatonin for 30 min."}, "TrkB [3]": {"biological_target": "T2, TrkB", "assay": "Screening of catecholamine derivatives for TrkB activation in primary cortical neurons (anti-p-TrkB-Y-816 immunoblot)", "format": "cell-based", "settings": "500 nM, 30 min", "experimental": "Catecholamines can directly bind to the kinase domain of the TrkB receptor and activate it. However, the catecholamines are not able to cross through the blood brain barrier. […] Cortical neurons (7 DIV cortical neurons from 18 day old Sprague Dawley rat embryos) were treated with 500 nM of the selected compound for 30 min and cell lysates were prepared. The cell lysates ([…]) were analyzed for TrkB activation by immunoblotting with anti-p-TrkB-Y-816 antibody.\nCatecholamine derivatives as described herein, including Compound I-2, Compound I-5, Compound I-7, Compound I-8, Compound I-9, Compound I-10, Compound I-11, Compound I-14, Compound I-15, Compound I-17, Compound I-18, and isoproterenol, were screened for TrkB activation in primary cortical neurons. Cortical neurons (7 DIV cortical neurons from 18 day old Sprague Dawley rat embryos) were treated with 500 nM of the selected compound for 30 min and cell lysates were prepared. The cell lysates ([…]) were analyzed for TrkB activation by immunoblotting with anti-p-TrkB-Y-816 antibody."}, "TrkB [4]": {"tested_on": "TrkB", "format": "in vivo", "settings": "BDNF conditional knockout mice, compared to vehicle control"}, "TrkB [5]": {"biological_target": "T3, TrkB (Mus musculus, UniProt P15209, F616A)", "T3 construct": "from tissue; host or cells: mouse brain", "T3 sequence (P15209 32-821 F616A)": "as the sequence (P15209 32-821) above, with F585A counted along it", "format": "in vivo", "settings": "L-DOPA 50 mg/kg, DOPS 100 mg/kg, 1NMPP1 50 μM", "experimental": "The DOPS concentration was 20 mg/ml, the vitamin C concentration was 2 mg/ml, and the benserazide concentration was 5 mg/ml. The vitamin C prevents oxidation of the DOPS, and the benserazide is a peripheral inhibitor of AADC and restricts the production of NE from DOPS to the brain. The compounds were added to a tube, and 20 μl of 10 M HCl was added to each ml of DOPS solution. The appropriate amount of water was added to the tube, and then HCl was added to achieve the desired volume. For example, to make 1 mL of a DOPS solution, 20 mg DOPS, 2 mg vitamin C, and 5 mg benserazide were added to a tube, followed by 980 μL of water and 20 μL of 10 M HCl. The solution was vortexed until all DOPS was dissolved. The DOPS solution was injected subcutaneously in a volume of 50 μl/g of mouse. The appropriate amount of DOPS solution was pipetted into a clean tube, followed by the amount of 10 M NaOH required to exactly neutralize the HCl. The solution was then shaken. The amount of 10 M NaOH is the weight of the mouse in microliters. For example, for a 20 g mouse, pipet 1 ml of the DOPS solution is pipetted into a tube and 20 μL of 10 M NaOH is added. For a 30 g mouse, 1.5 mL of the DOPS solution is pipetted into a tube and 30 μl of 10 M NaOH is added. Two to four month-old TrkBF616A mice were pretreated with 1NMPP1 in drinking water (50 μM) 1 day before L-DOPA (50 mg/kg) or DOPS (100 mg/kg) intraperitoneal injection. At times of 2 hours and 5 hours after drug administration, the L-DOPA or DOPS-treated mice were sacrificed, respectively. The brain lysates were prepared and analyzed by immunoblotting against anti-phospho-TrkB Y816 and TrkA Y794 antibodies.\n(§3) TrkB F616A mice were pretreated with 1NMPP1 (50 μM) before L-DOPA or DOPS administration."}, "TrkB [6]": {"biological_target": "T2, TrkB", "assay": "Immunoblotting of TrkB phosphorylation in primary cortical neurons treated with catecholamines", "format": "cell-based", "settings": "for TrkB activation (immunoblotting of neuronal lysates): primary neurons", "experimental": "Primary cultured rat cortical neurons were prepared as follows. E17 rat pups were decapitated and cortex was extirpated, cross chopped and suspended by pipetting for separation in 5% fetal calf serum (FCS), 5% horse serum (HS) DMEM. The cell suspension was then centrifuged at 250×g for 5 min. This operation was repeated. Cells were seeded into polyethyleneimine-coated 10 cm^2 dishes and 12-well plates including coated-coverslips and incubated at 37° C. in 5% CO2/95% air. After 3 hours, the culture medium was changed to Neurobasal containing B-27 supplement (Invitrogen; Carlsbad, Calif.) and incubated for 4 days. For maintenance, half of the culture medium was changed to fresh Neurobasal/B27 in every 4 days. After 1 week, the dished cultured neurons were ready for use.\nas §2"}, "TrkB [7]": {"biological_target": "T2, TrkB", "assay": "TrkB activation in cortical neurons after pretreatment with antibodies, receptor antagonists, transporter inhibitors or EDTA (anti-p-TrkB-Y-816 immunoblot)", "format": "cell-based", "source_text": "(§4) Both antidepressants and exercise increase hippocampal BDNF mRNA expression through enhanced 5-HT and/or NE neurotransmission (Siuciak et al., Pharmacol. Biochem. Behav., 56:131-137, 1997; Dias et al., Neuropharmacology, 45:553-563, 2003; Ivy et al., Pharmacol. Biochem. Behav., 75:81-88, 2003; Garza et al., Pharmacol. Biochem. Behav., 77:209-220, 2004). If catecholamines activated TrkB signaling indirectly by promoting BDNF generation, then scavenging BDNF with its specific antibody would be expected to diminish catecholamines-mediated activation of TrkB. Cultured cortical neurons were pretreated with BDNF-IgG for 30 minutes followed by exposure to BDNF (10 ng/ml) or catecholamines (100 nM) for 15 minutes. […] It was then determined whether catecholamines could activate TrkB in neurons cultured from mice carrying a null mutation of BDNF.\nTo further investigate the specificity of catecholamines in inducing TrkB activation, cortical neurons were pretreated with control IgG or norepinephrine IgG, a rabbit polyclonal antibody for norepinephrine, followed by catecholamines.\nas §1\n(§5) The cell lysates were analyzed by immunoblotting with anti-p-TrkB-Y-816.\nas §5\nA group of primary cortical neurons were pretreated with 1 mM EDTA, and another group of primary cortical neurons were not pretreated. Both groups of primary cortical neurons were then treated with either Zn (100 μM) or a catecholamine (100 nM) for 15 minutes. The neuronal cell lysates were analyzed by immunoblotting with anti-p-TrkB-Y-816 antibody."}, "TrkB [8]": {"biological_target": "T1, TrkB", "assay": "TrkB activation in cortical neurons cultured from BDNF-null mice", "format": "cell-based", "settings": "15 min", "source_text": "as §4"}, "TrkB F616A": {"biological_target": "T4, TrkB F616A (Mus musculus, UniProt P15209, F616A)", "T4 construct": "endogenous in cells; host or cells: primary cortical neurons from TrkB F616A knock-in mice", "T4 sequence (P15209 32-821 F616A)": "as the sequence (P15209 32-821) above, with F585A counted along it", "assay": "TrkB phosphorylation in TrkB F616A or TrkA F592A cortical neurons pretreated with K252a or 1NMPP1", "format": "cell-based, mice", "settings": "TrkB F616A knock-in cortical neurons", "experimental": "as §3\nOn day 7, the primary cortical neurons were pretreated with 100 nM K252a or 1NMPP1 for 30 min, followed by 500 nM ADPP and DDAP. Cell lysates were analyzed by Western blotting."}, "TrkB [9]": {"tested_on": "TrkB", "assay": "TrkB activation in mouse brain after administration of catecholamine derivatives (anti-p-TrkB-Y-816 immunoblot)", "format": "in vivo", "settings": "50 mg/kg orally (in saline), C57BL/6J mice", "experimental": "To explore whether these compounds could stimulate TrkB in vivo, 50 mg/kg of Compound I-11, Compound I-8, and Compound I-2 (2-(methylamino)-3′,4′-dihydroxy-acetophenone) were each orally administered (in saline) to 2-month-old C57BL/6J mice. The mice were sacrificed at different time points and TrkB activation in the brains of the mice was monitored by immunoblotting with anti-p-TrkB-Y-816 antibody.\nTo determine the minimal required dosages for Compound I-11 and Compound I-8, different doses of the compounds were each orally administered to mice. The mice were sacrificed after 4 hours, and the brain lysates were analyzed by immunoblotting with anti-p-TrkB-Y-816 antibody.\nTo search for orally bioactive catecholamines, catecholamine derivatives described herein were screened using primary neuronal cultures. The in vitro active compounds, Compounds I-8 and I-11, were adminstered into two to three month old C57BL/6J mice orally, intraperitoneally, and in drinking water. For oral administration, the mice were administered 0 mg (control), 5 mg, 10 mg, 20 mg, or 50 mg of Compound I-8 or Compound I-11. After 4 hours, TrkB phosphorylation in mouse brain was monitored by analyzing the brain lysates using immunoblotting with anti-p-TrkB-Y-816 antibody. The ratios of p-TrK/total TrkB were quantified (FIG. 27A). For intraperitoneal administration, 50 mg/kg of Compound I-8 or Compound I-11 were intraperitoneally injected into the mice. The brain lysates were prepared at different times (0 hr, 1 hr, 2 hr, 4 hr, and 8 hr) and were analyzed by immunoblotting with anti-p-TrkB-Y-816 antibody (FIG. 27B). Compound I-8 and Compound I-11 were dissolved in drinking water and given to mice. After 24 h, the brain lysates were prepared and analyzed by immunoblotting with anti-p-TrkB-Y-816 antibody (FIG. 27C). […] Therefore, these compounds are useful in treating various neurological or neuropsychiatric diseases as described herein."}}, "data": [{"molecule": "NCCc1ccc(O)c(O)c1", "note": "[dopamine]", "values": [{"measurement": "TrkB activation in NET -/- neurons", "setting": "TrkB [1]", "result": "notable TrkB activation"}]}, {"molecule": "O=C(O)Cc1c[nH]c2ccc(O)cc12", "note": "[Compound 5-HIAA, 5-hydroxyindoleacetic acid]", "values": [{"measurement": "TrkB tyrosine phosphorylation (immunofluorescent staining)", "setting": "TrkB [2]", "result": "had no effect"}]}, {"molecule": "CN[C@@H](C(N)=O)C(=O)c1ccc(O)c(O)c1", "note": "[Compound I-7]", "values": [{"measurement": "TrkB activation in primary cortical neurons", "setting": "TrkB [3]", "result": "display activity"}]}, {"molecule": "N[C@@H](Cc1ccc(O)c(O)c1)C(=O)O", "note": "[L-DOPA, L-dihydroxyphenylalanine]", "values": [{"measurement": "TrkB activation in BDNF -/- cortex", "setting": "TrkB [4]", "result": "strongly triggered TrkB activation"}, {"measurement": "TrkB tyrosine phosphorylation/activation in mice", "setting": "TrkB [5]", "result": "provoked evident TrkB activation"}, {"measurement": "TrkB activation in primary cultured neurons", "setting": "TrkB [6]", "result": "rapidly induced TrkB activation"}]}, {"molecule": "c1ccc(CCCN2CCN(CCOC(c3ccccc3)c3ccccc3)CC2)cc1", "note": "[GBR12935]", "values": [{"measurement": "Effect of inhibitor on dopamine-mediated TrkB activation", "setting": "TrkB [7]; cortical neurons", "result": "significantly blocked"}]}, {"molecule": "COc1ccc2[nH]cc(CCNC(C)=O)c2c1", "note": "[melatonin]", "values": [{"measurement": "TrkB tyrosine phosphorylation (immunofluorescent staining)", "setting": "TrkB [2]", "result": "did not"}, {"measurement": "TrkB activation (immunoblotting of neuronal lysates)", "setting": "TrkB [6]", "result": "not activated"}]}, {"molecule": "NCCc1c[nH]c2ccc(O)cc12", "note": "[serotonin]", "values": [{"measurement": "TrkB tyrosine phosphorylation (immunofluorescent staining)", "setting": "TrkB [2]", "result": "did not"}, {"measurement": "Activation of TrkB in BDNF-null cortical neurons", "setting": "TrkB [8]", "result": "had no effect"}, {"measurement": "TrkB phosphorylation provoked by the substance", "setting": "TrkB F616A", "result": "had no effect"}, {"measurement": "TrkB activation (immunoblotting of neuronal lysates)", "setting": "TrkB [6]", "result": "not activated"}]}, {"molecule": "CNCC(=O)c1ccc(O)c(O)c1", "note": "[Compound I-2, 2-(methylamino)-3′,4′-dihydroxy-acetophenone]", "values": [{"measurement": "TrkB activation in the brains of the mice", "setting": "TrkB [9]", "result": "failed to activate TrkB"}, {"measurement": "TrkB activation in primary cortical neurons", "setting": "TrkB [3]", "result": "display activity"}]}, {"molecule": "CN[C@@H](C(=O)N(C)C)[C@@H](O)c1ccc(O)c(O)c1", "note": "[Compound I-15]", "values": [{"measurement": "TrkB activation in primary cortical neurons", "setting": "TrkB [3]", "result": "display activity"}]}, {"molecule": "O=C(O)CN(CCN(CC(=O)O)CC(=O)O)CC(=O)O", "note": "[EDTA]", "values": [{"measurement": "Effect of EDTA on stimulatory activity of TrkB activation by Zn", "setting": "TrkB [7]; 1 mM EDTA, Zn 100 μM, 15 minutes", "result": "blocked"}]}, {"molecule": "NCCc1c[nH]c2ccc(OS(=O)(=O)O)cc12", "note": "[Compound 5-HT-sulfate, 5-HT-sulfate]", "values": [{"measurement": "TrkB tyrosine phosphorylation (immunofluorescent staining)", "setting": "TrkB [2]", "result": "had no effect"}]}]}
